Measured values published in patent US20230167088A1, “1-PYRAZINYLPYRAZOLYL-3-OXYALKYL ACIDS AND THEIR DERIVATIVES, AND THEIR USE FOR CONTROL OF UNDESIRED PLANT GROWTH” (BAYER AKTIENGESELLSCHAFT, priority 2020, published 2023).

What was measured:
STEME [1] = experiment: Herbicidal pre-emergence action 2b (doubly sown, 1280 g/ha); format: in vivo, Stellaria media; conditions: doubly sown pots, dosage 1280 g/ha, visual scoring after about 3 weeks
Method in brief: (§1)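 Read-out: visual percentage damage relative to untreated controls, scored after roughly 3 weeks in the greenhouse, where 100% means plants died and 0% equals control. Seeds were sown two species per pot in sandy loam and covered before the compounds, formulated as WP or EC with 0.5% additive, were sprayed onto the soil at 600 L/ha.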

POAAN [2] = experiment: as above; format: in vivo, Poa annua; conditions: doubly sown pots, dosage 1280 g/ha, visual scoring after about 3 weeks
Method in brief: as §1

MATIN [3] = experiment: Herbicidal post-emergence action 1b (twin sowing, 1280 g/ha); format: in vivo, Matricaria inodora; conditions: dosage 1280 g/ha, visual rating about 3 weeks after treatment
Method in brief: (§2)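 Sow paired weed species in sandy loam pots and grow in the greenhouse; at the one-leaf stage (2–3 weeks) spray green parts with compound suspension or emulsion containing 0.5% additive at 600 L water/ha; keep about 3 weeks, then score damage visually relative to untreated plants.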

ABUTH = experiment: as above; format: in vivo, Abutilon theophrasti; conditions: dosage 1280 g/ha, visual rating about 3 weeks after treatment
Protocol: (§3) [table] b) Seeds of mono- and dicotyledonous weed plants are placed in plastic pots in sandy loam soil (twin sowing with one species each of mono- or dicotyledonous weed plants per pot), covered with soil and cultivated in a greenhouse under controlled growth conditions. 2 to 3 weeks after sowing, the test plants are treated at the one-leaf stage. The compounds of the invention, formulated in the form of wettable powders (WP) or as emulsion concentrates (EC), are applied to the green parts of the plants as aqueous suspension or emulsion with addition of 0.5% additive at a water application rate equivalent to 600 litres per hectare. After the test plants have been kept in the greenhouse under optimum growth conditions for about 3 weeks, the activity of the preparations is rated visually in comparison to untreated controls. For example, 100% activity=the plants have died, 0% activity=like control plants. Tables A16 to A21 below show the effects of selected compounds of the general formula (I) according to Tables 1 and 2 on various harmful plants and at an application rate corresponding to 1280 g/ha, which were obtained by the experimental procedure mentioned above.

DIGSA [4] = experiment: as above; format: in vivo, Digitaria sanguinalis; conditions: dosage 1280 g/ha, visual rating about 3 weeks after treatment
Protocol: as §3

AMARE [5] = experiment: Herbicidal pre-emergence action 2b (doubly sown, 1280 g/ha); format: in vivo, Amaranthus retroflexus; conditions: doubly sown pots, dosage 1280 g/ha, visual scoring after about 3 weeks
Method in brief: as §1

DIGSA [6] = experiment: as above; format: in vivo, Digitaria sanguinalis; conditions: doubly sown pots, dosage 1280 g/ha, visual scoring after about 3 weeks
Method in brief: as §1

ECHCG [7] = experiment: as above; format: in vivo, Echinochloa crus-galli; conditions: doubly sown pots, dosage 1280 g/ha, visual scoring after about 3 weeks
Method in brief: as §1

MATIN [8] = experiment: as above; format: in vivo, Matricaria inodora; conditions: doubly sown pots, dosage 1280 g/ha, visual scoring after about 3 weeks
Method in brief: as §1

POAAN [9] = experiment: Herbicidal post-emergence action 1b (twin sowing, 1280 g/ha); format: in vivo, Poa annua; conditions: dosage 1280 g/ha, visual rating about 3 weeks after treatment
Method in brief: as §2

ECHCG [10] = experiment: as above; format: in vivo, Echinochloa crus-galli; conditions: dosage 1280 g/ha, visual rating about 3 weeks after treatment
Protocol: as §3

STEME [11] = experiment: as above; format: in vivo, Stellaria media; conditions: dosage 1280 g/ha, visual rating about 3 weeks after treatment
Method in brief: as §2

MATIN [12] = experiment: Herbicidal pre-emergence action 2a (greenhouse pots, visual scoring); format: in vivo, Matricaria inodora; conditions: dosage 320 g/ha, visual scoring after about 3 weeks vs untreated controls
Source text: (§4) [table] a) Seeds of monocotyledonous and dicotyledonous weed plants and crop plants are placed in plastic or organic plant pots and covered with soil. The compounds of the invention, formulated in the form of wettable powders (WP) or as emulsion concentrates (EC), are then applied onto the surface of the covering soil as aqueous suspension or emulsion with addition of 0.5% additive at a water application rate of 600 1/ha (converted). After the treatment, the pots are placed in a greenhouse and kept under good growth conditions for the trial plants. After about 3 weeks, the effect of the preparations is scored visually in comparison with untreated controls as percentages. For example, 100% activity=the plants have died, 0% activity=like control plants. Tables B1 to B15 below show the effects of selected compounds of the general formula (I) according to Tables 1 and 2 on various harmful plants and an application rate corresponding to 320 g/ha and/or 80 g/ha, which were obtained by the experimental procedure mentioned above.

AMARE [13] = experiment: as above; format: in vivo, Amaranthus retroflexus; conditions: visual scoring after about 3 weeks vs untreated controls
Method in brief: (§5)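 Pots of covered seed were sprayed pre-emergence at 320 and/or 80 g/ha. Roughly three weeks of greenhouse growth preceded visual scoring in percent versus untreated controls.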

SETVI = experiment: as above; format: in vivo, Setaria viridis; conditions: dosage 320 g/ha, visual scoring after about 3 weeks vs untreated controls
Method in brief: as §5

VIOTR [14] = experiment: Herbicidal post-emergence action 1a (greenhouse pots, visual rating); format: in vivo, Viola tricolor; conditions: dosage 80 g/ha, visual rating about 3 weeks after treatment
Method in brief: (§6)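 Weeds and crops sown in sandy loam in greenhouse pots were sprayed post-emergence at the one-leaf stage (2–3 weeks after sowing) with WP or EC formulations plus 0.5% additive at 600 l/ha water, 320 and/or 80 g/ha. About 3 weeks later damage was rated visually against untreated controls (0% = no effect, 100% = dead).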

VERPE [15] = experiment: as above; format: in vivo, Veronica persica; conditions: dosage 80 g/ha, visual rating about 3 weeks after treatment
Method in brief: as §6

VERPE [16] = experiment: Herbicidal pre-emergence action 2a (greenhouse pots, visual scoring); format: in vivo, Veronica persica; conditions: dosage 320 g/ha, visual scoring after about 3 weeks vs untreated controls
Method in brief: as §5

LOLRI = experiment: as above; format: in vivo, Lolium rigidum; conditions: dosage 320 g/ha, visual scoring after about 3 weeks vs untreated controls
Method in brief: as §5

ALOMY [17] = experiment: Herbicidal post-emergence action 1a (greenhouse pots, visual rating); format: in vivo, Alopecurus myosuroides; conditions: Dosage 80 g/ha; rated visually about 3 weeks after treatment; 100% = plants have died, 0% = like control plants
Method in brief: as §6

VIOTR [18] = experiment: Herbicidal pre-emergence action 2a (greenhouse pots, visual scoring); format: in vivo, Viola tricolor; conditions: dosage 320 g/ha, visual scoring after about 3 weeks vs untreated controls
Method in brief: as §5

ALOMY [19] = experiment: as above; format: in vivo, Alopecurus myosuroides; conditions: dosage 320 g/ha, visual scoring after about 3 weeks
Method in brief: as §5

DIGSA [20] = experiment: as above; format: in vivo, Digitaria sanguinalis; conditions: dosage 80 g/ha, visual scoring after about 3 weeks
Source text: as §4

DIGSA [21] = experiment: Herbicidal post-emergence action 1a (greenhouse pots, visual rating); format: in vivo, Digitaria sanguinalis; conditions: Dosage 80 g/ha; rated visually about 3 weeks after treatment; 100% = plants have died, 0% = like control plants
Protocol: (§7) [table] a) Seeds of monocotyledonous and dicotyledonous weeds and crop plants are placed in sandy loam in plastic or organic plant pots, covered with soil and cultivated in a greenhouse under controlled growth conditions. 2 to 3 weeks after sowing, the test plants are treated at the one-leaf stage. The compounds of the invention, formulated in the form of wettable powders (WP) or as emulsion concentrates (EC), are then sprayed onto the green parts of the plants as aqueous suspension or emulsion with addition of 0.5% additive at a water application rate of 600 1/ha (converted). After the test plants have been kept in the greenhouse under optimum growth conditions for about 3 weeks, the activity of the preparations is rated visually in comparison to untreated controls. For example, 100% activity=the plants have died, 0% activity=like control plants. Tables A1 to A15 below show the effects of selected compounds of the general formula (I) according to Tables 1 and 2 on various harmful plants and an application rate corresponding to 320 g/ha and/or 80 g/ha, which were obtained by the experimental procedure mentioned above.

AMARE [22] = experiment: as above; format: in vivo, Amaranthus retroflexus; conditions: dosage 80 g/ha, visual rating about 3 weeks after treatment
Method in brief: as §6

PHBPU = experiment: as above; format: in vivo, Pharbitis purpurea; conditions: dosage 80 g/ha, visual rating about 3 weeks after treatment
Protocol: as §7

Structure (SMILES) | Pre-emergence action at 1280 g/ha against STEME in % (STEME [1]) | Pre-emergence action at 1280 g/ha against POAAN in % (POAAN [2]) | Post-emergence action at 1280 g/ha against MATIN in % (MATIN [3]) | Post-emergence action at 1280 g/ha against ABUTH in % (ABUTH) | Post-emergence action at 1280 g/ha against DIGSA in % (DIGSA [4]) | Pre-emergence action at 1280 g/ha against AMARE in % (AMARE [5]) | Pre-emergence action at 1280 g/ha against DIGSA in % (DIGSA [6]) | Pre-emergence action at 1280 g/ha against ECHCG in % (ECHCG [7]) | Pre-emergence action at 1280 g/ha against MATIN in % (MATIN [8]) | Post-emergence action at 1280 g/ha against POAAN in % (POAAN [9]) | Post-emergence action at 1280 g/ha against ECHCG in % (ECHCG [10]) | Post-emergence action at 1280 g/ha against STEME in % (STEME [11]) | Post-emergence action against ALOMY in % (ALOMY [17]) | also measured
O=C(O)COc1nn(-c2cnccn2)c(-c2ccc(F)nc2)c1Br [Example I-49, {[4-bromo-5-(6-fluoropyridin-3-yl)-1-(pyrazin-2-yl)-1H-pyrazol-3-yl]oxy}acetic acid] | 100% | 100% | 100% | 100% | 90% | 100% | 100% | 100% | 100% | 100% | 100% | 90% | – | –
N#CCOC(=O)COc1nn(-c2cnccn2)c(-c2ccc(F)nc2)c1Br [Example I-65] | 100% | 100% | 100% | 90% | 100% | 100% | 100% | 100% | 100% | 100% | 90% | 90% | 80% | Pre-emergence action against MATIN in % (MATIN [12]): 90%; Pre-emergence action against AMARE in % (AMARE [13]; dosage 320 g/ha): 100%; Pre-emergence action against SETVI in % (SETVI): 100%; Post-emergence action against VIOTR in % (VIOTR [14]): 80%; Post-emergence action against VERPE in % (VERPE [15]): 80%; Pre-emergence action against VERPE in % (VERPE [16]): 90%; Pre-emergence action against LOLRI in % (LOLRI): 80%; Pre-emergence action against VIOTR in % (VIOTR [18]): 90%; Pre-emergence action against ALOMY in % (ALOMY [19]): 90%
O=C(COc1nn(-c2cnccn2)c(-c2ccc(F)nc2)c1Br)OCc1ccccn1 [Example I-70] | 100% | 100% | 100% | 100% | 100% | 100% | 100% | 100% | 100% | – | 90% | 100% | – | –
COC(=O)[C@H](C)Oc1nn(-c2cnccn2)c(-c2ccc(F)nc2)c1Br [Example I-18] | 100% | 100% | 90% | 90% | 100% | 100% | 100% | 100% | 90% | 100% | – | 100% | – | –
CC(Oc1nn(-c2cnccn2)c(-c2ccc(F)c(F)c2)c1Br)C(=O)O (stereo not shown) [Example I-47] | 100% | 100% | 90% | 90% | 100% | 100% | 100% | 100% | 100% | 100% | 100% | 100% | 90% | Pre-emergence action against AMARE in % (AMARE [13]; dosage 80 g/ha): 90%; Pre-emergence action against DIGSA in % (DIGSA [20]): 100%; Post-emergence action against DIGSA in % (DIGSA [21]): 80%; Post-emergence action against AMARE in % (AMARE [22]): 80%; Post-emergence action against PHBPU in % (PHBPU): 80%
COC(=O)[C@@H](C)Oc1nn(-c2cnccn2)c(-c2cncnc2)c1Br [Example I-30] | 100% | 100% | – | 90% | 100% | 100% | 100% | 100% | 90% | 100% | 90% | 90% | – | –
